In US20040229268A1, “Method and kit for identifying antibiotic-resistant microorganisms” (priority 2003, published 2004):
Marks after values point to notes of the source that are not given here.

Key:
[1] = system: mecA gene; Staphylococcus ribosomal nucleic acids; assay: HPA after thermal lysis, base hydrolysis and neutralization (Examples 5-7); assay type: binding, S. aureus
Procedure: The cultured S. aureus specimens were lysed by suspending 1 μl loops of bacteria in 150 μl of lysis buffer and then incubating at 105° C. for 15 minutes. Next, 100 μl of 2 N LiOH base solution was added and RNA was hydrolyzed by incubating the mixtures at 60° C. for 15 minutes. Hydrolyzed samples were neutralized by the addition of 100 μl of a neutralizing reagent that included 2 N HCl and 100 mM succinate buffer (pH 5.5 prior to acidification with HCl). Specifically hybridized probe was detected by standard HPA, essentially as described in Example 1.
Specimens (1 μl loops of bacteria) were treated and tested essentially as described in Example 5 with the following differences: incubation for lysis was for 15 minutes and incubation for hybridization was for 45 minutes for samples shown in Tables 7-8, while incubation for lysis was for 10 minutes and incubation for hybridization was for 20 minutes for samples shown in Table 9. All of the base-treated solutions were neutralized by the addition of 250 μl of 0.8 N HCl containing 100 mM succinate.
2′-methoxy analogs of the AE-labeled DNA probes were prepared by standard phosphoramidite synthesis using 2′ methoxy phosphoramidite analogs. Additional linker positions, which are indicated by parentheses in Table 11, for probe 2 were also prepared for testing. Deoxy probes and 2′-methoxy probe analogs were tested essentially as described in Example 5, except as noted below. Probes synthesized using 2′-methoxy nucleotide analogs are particularly identified by the “MeO” designations. Brief summaries of the procedures used to obtain the results are appended to the tables.

[2] = system: VanA and VanB gene sequences; assay: HPA for detecting VanA and VanB gene sequences (Example 12); assay type: binding, E. faecalis, E. faecium
Procedure: Double-stranded plasmids harboring inserts of either VanA or VanB gene sequences were prepared for use as control templates. More specifically, VanA gene sequences were amplified in a PCR protocol using primers having the sequences of VanA(+)464 Kpn and VanA(−)1325Bam. Similarly, VanB gene sequences were amplified using primers having the sequences of VanB(+)084 Kpn and VanB(−)1006Bam. Genomic DNA samples from bacteria known to have VanA or VanB genotypes were used as templates in the amplification reactions. Blunt-ended amplification products containing VanA gene sequences were ligated into a pPCR-[…] SK(+) (Stratagene; La Jolla, Calif.) plasmid cloning vector, and propagated in E. coli host bacteria using procedures that will be familiar to those having an ordinary level of skill in the art. Double-stranded amplification products containing VanB gene sequences were first digested with KpnI and BamHI, and then ligated into a similarly cleaved pBLUESCRIPT-II KS(+) (Stratagene; La Jolla, Calif.) plasmid cloning vector. Isolated double-stranded plasmid DNA served as controls in hybridization assays.
2′-deoxy probes having the sequences presented under Example 10 were prepared by standard phosphoramidite synthesis. AE labeling of the probes also was performed using standard procedures, as described herein and as will be familiar to those having an ordinary level of skill in the art. Samples of four different cultured VRE bacteria described under the previous Example were lysed essentially as described above. RNA in the samples was hydrolyzed and DNA denatured by incubation of the lysate with hydroxide at elevated temperature. In parallel procedures, samples of two plasmid clones harboring either the VanA or VanB inserts (as described under the previous Example) were also treated to denature DNA. All samples were neutralized by addition of a buffered HCl reagent. AE-labeled probes were added to each of the samples and then hybridized at 55-60° C. for 45 minutes to permit formation of complementary probe:target duplexes. The pan-bacterial probe (Probe Reagent 1, GEN-PROBE® MTC-NI Kit, catalog no. 4573) described under Example 2 was used as a positive control to confirm the presence of bacterial nucleic acid targets. Trials containing labeled probe in the absence of an added target (i.e., “probe alone”) served as negative controls. The AE label joined to probe molecules that remained single-stranded following the hybridization procedure were destroyed by treatment under mild alkaline conditions, and the extent of specific hybrid formation quantified by luminometry as described in the foregoing Examples.

[3] = ATCC 51299 (VanB), E. faecalis lysate
[4] = ATCC 51575 (VanB), E. faecalis lysate
[5] = ATCC 700221 (VanA), E. faecium lysate
[6] = ATCC 700802 (VanB), E. faecalis lysate
[7] = samples containing nucleic acids from VanB-positive VRE bacteria
[8] = Table 7, lysis 15 minutes, hybridization 45 minutes
[9] = Table 9, lysis 10 minutes, hybridization 20 minutes
[10] = Table 11, neutralize 250 μl 0.8 N HCl containing 100 mM succinate, hybridize 45 minutes at 60° C.
[11] = Table 8, lysis 15 minutes, hybridization 45 minutes
[12] = samples containing nucleic acids from the single VanA-positive bacterial isolate
[13] = VanA-positive bacterial sample ATCC # 700221
[14] = average over VanB-positive bacterial samples ATCC Nos. 51575, 700802 and 51299
[15] = Table 10, neutralize 100 μl 2 N HCl containing 200 mM succinate, hybridize 45 minutes at 60° C.

Substance | Probe Hybridization (in RLU) [2, 3] [RLU] | Probe Hybridization (in RLU) [2, 4] [RLU] | Probe Hybridization (in RLU) [2, 5] [RLU] | Probe Hybridization (in RLU) [2, 6] [RLU] | Probe Hybridization (in RLU) ([2]; Probe Alone (no added target)) [RLU] | Probe Hybridization (in RLU) ([2]; VanA clone (plasmid)) [RLU] | Probe Hybridization (in RLU) ([2]; VanB clone (plasmid)) | GP1217(Pos) RLU [1, 9] [RLU] | Probe alone Avg RLU [1, 9] [RLU] | further results
CCACTCAAGAGAGACAACATTTTCGACTAC (chemistry not given here) [S. aureus probe with helpers] |  |  |  |  |  |  |  |  |  | RLU ([1]; Table 6, GP18(Neg), MSSA ATCC #12600): 148,780 RLU; RLU ([1]; Table 6, GP1214(Neg), MSSA ATCC #29247): 203,725 RLU; RLU ([1]; Table 6, GP1217(Pos), MRSA ATCC #33591): 199,476 RLU; RLU ([1]; Table 6, GP1218(Pos), MRSA ATCC #43866): 163,825 RLU
CCGCAGCTTGCATGGACAAATCACTGGC (DNA, backbone and methylation of C not given here; further chemistry not fully specified; listed as Enterococcus faecalis) [VanB(+)084] | 7863 | 6003 | 768 | 10119 | 371 | 716 | 54711 RLU |  |  | hybridization signal (in words) [2, 7]: very strong signals
CGATTGTGACACGATAGCCATCTTCATGTTGGAGC (DNA, backbone and methylation of C not given here; acridinium ester label on internal non-nucleotide linker; listed as Staphylococcus aureus) [probe 6] |  |  |  |  |  |  |  | 55947 | 1004 | GP18(Neg) RLU [1, 8]: 1195 RLU; GP1217(Pos) RLU [1, 8]: 38158 RLU; Probe alone Avg RLU [1, 8]: 6117 RLU; GP1214(Neg) RLU [1, 10]: 1994 RLU; GP1217(Pos) RLU [1, 10]: 43307 RLU; Probe alone Avg RLU [1, 10]: 1540 RLU
CGCATCCATCAGGAAAACGAGCCGG (DNA, backbone and methylation of C not given here; acridinium ester (AE) label attached via linker; listed as Enterococcus faecalis) [VanB(+)428] | 8113 | 6307 | 683 | 9657 | 370 | 684 | 49242 RLU |  |  | hybridization signal (in words) [2, 7]: very strong signals
CGGACGTTCAGTCATTTCTACTTCACCATTATCGC (DNA, backbone and methylation of C not given here; acridinium ester label on internal non-nucleotide linker; listed as Staphylococcus aureus) [probe 4] |  |  |  |  |  |  |  | 34352 | 734 | GP18(Neg) RLU [1, 11]: 641 RLU; GP1217(Pos) RLU [1, 11]: 20192 RLU; Probe alone Avg RLU [1, 11]: 690 RLU
CGTTCAGTACAATGCGGCCG (DNA, backbone and methylation of C not given here; further chemistry not fully specified; listed as Enterococcus faecium) [VanA(−)1325] | 1182 | 1761 | 23523 | 931 | 368 | 24378 | 942 RLU |  |  | hybridization signal (in words) [2, 12]: very strong hybridization signals
GAGCTTTGAATATCGCAGCCTAC (AE label linker 11/12, chemistry not fully specified; listed as Enterococcus faecalis) [Van A&B(−)734] | 5497 | 5166 | 8901 | 7425 | 240 | 48999 | 718† RLU |  |  | background-corrected hybridization signal relative to negative control (fold greater than background) [2, 13]: about 36 fold; background-corrected hybridization signal relative to negative control (fold greater than background) [2, 14]: about 24 fold; hybridization signal (in words) ([2]; nucleic acids from VRE bacteria either VanA-positive or VanB-positive): very strong signals
GCGATAATGGTGAAGTAGAAATGACTGAACGTCCG (DNA, backbone and methylation of C not given here; acridinium ester label on internal non-nucleotide linker; listed as Staphylococcus aureus) [probe 3] |  |  |  |  |  |  |  | 46566 | 684 | GP18(Neg) RLU [1, 11]: 371 RLU; GP1217(Pos) RLU [1, 11]: 36123 RLU; Probe alone Avg RLU [1, 11]: 445 RLU; GP1214(Neg) RLU [1, 10]: 1303 RLU; GP1217(Pos) RLU [1, 10]: 36993 RLU; Probe alone Avg RLU [1, 10]: 1098 RLU
GCTCCAACATGAAGATGGCTATCGTGTCACAATCG (DNA, backbone and methylation of C not given here; acridinium ester label on internal non-nucleotide linker; listed as Staphylococcus aureus) [probe 5] |  |  |  |  |  |  |  | 42816 | 2823 | GP18(Neg) RLU [1, 8]: 1250 RLU; GP1217(Pos) RLU [1, 8]: 37472 RLU; Probe alone Avg RLU [1, 8]: 4088 RLU
GCTGAGCTTTGAATATCGCAGCC (AE label linker 8/9, chemistry not fully specified; listed as Enterococcus faecium) [VanA(−)792] | 2983 | 2254 | 10627 | 3653 | 256 | 52729 | 505 RLU |  |  | background-corrected hybridization signal relative to negative control (fold greater than background) [2, 13]: about 40 fold; background-corrected hybridization signal relative to negative control (fold greater than background) [2, 14]: about 10.5 fold; hybridization signal (in words) [2, 12]: very strong hybridization signals
GGGTTGCTCAGAGGAGCATGACGTATCGG (DNA, backbone and methylation of C not given here; further chemistry not fully specified; listed as Enterococcus faecium) [VanA(+)464] | 765 | 696 | 10910 | 757 | 374 | 37434 | 817 RLU |  |  | hybridization signal (in words) [2, 12]: very strong hybridization signals
MeO-probe 1: 2′-methoxy analog of AE-labeled probe 1 (SEQ ID NO:1) (DNA GGTATGTGGAAGTTAGATTGGGATCATAGCG; all 2'-O-methyl, backbone and T or U not given here; acridinium ester label on internal non-nucleotide linker; listed as Staphylococcus aureus) |  |  |  |  |  |  |  |  |  | GP1214(Neg) RLU [1, 15]: 2308 RLU; GP1217(Pos) RLU [1, 15]: 62594 RLU; Probe alone Avg RLU [1, 15]: 1879 RLU; GP1214(Neg) RLU [1, 10]: 975 RLU; GP1217(Pos) RLU [1, 10]: 33659 RLU; Probe alone Avg RLU [1, 10]: 779 RLU
